Laboratory results reported in publication PMC10818749, “Toxicity Studies of Cardiac-Targeting Peptide Reveal a Robust Safety Profile” (Pharmaceutics, 2024).
“Also recorded” adds a separate entry of the source. Ends that are not written are not given here.

Tests used:
B6-wildtype mice = test: Blood pressure pre- and post-CTP injection; assay type: in vivo, mouse; settings: CTP 10 mg/Kg i.v.; 6 h post-injection vs pre-injection; six mice, isoflurane
Method: Blood Pressure Pre- and Post-CTP Injection: Six B6-wildtype mice were obtained from the Jackson Laboratory. Blood pressure was taken using a non-invasive blood pressure system from Kent Scientific. Mice were anesthetized using 2.5% isoflurane exposure for 5 min, placed in a tube holder, and warmed using a warming blanket for approximately 15 min before their tails were fitted with blood pressure cuffs. A total of 21 blood pressure readings were taken, and average systolic and diastolic blood pressure calculated. After baseline blood pressure was established, mice were injected intravenously with 10 mg/Kg of CTP, and blood pressure was measured again 6 h post-injection.

CHO-hERG = CHO-hERG (Homo sapiens, UniProt Q12809)
Chain of CHO-hERG (Q12809 whole entry): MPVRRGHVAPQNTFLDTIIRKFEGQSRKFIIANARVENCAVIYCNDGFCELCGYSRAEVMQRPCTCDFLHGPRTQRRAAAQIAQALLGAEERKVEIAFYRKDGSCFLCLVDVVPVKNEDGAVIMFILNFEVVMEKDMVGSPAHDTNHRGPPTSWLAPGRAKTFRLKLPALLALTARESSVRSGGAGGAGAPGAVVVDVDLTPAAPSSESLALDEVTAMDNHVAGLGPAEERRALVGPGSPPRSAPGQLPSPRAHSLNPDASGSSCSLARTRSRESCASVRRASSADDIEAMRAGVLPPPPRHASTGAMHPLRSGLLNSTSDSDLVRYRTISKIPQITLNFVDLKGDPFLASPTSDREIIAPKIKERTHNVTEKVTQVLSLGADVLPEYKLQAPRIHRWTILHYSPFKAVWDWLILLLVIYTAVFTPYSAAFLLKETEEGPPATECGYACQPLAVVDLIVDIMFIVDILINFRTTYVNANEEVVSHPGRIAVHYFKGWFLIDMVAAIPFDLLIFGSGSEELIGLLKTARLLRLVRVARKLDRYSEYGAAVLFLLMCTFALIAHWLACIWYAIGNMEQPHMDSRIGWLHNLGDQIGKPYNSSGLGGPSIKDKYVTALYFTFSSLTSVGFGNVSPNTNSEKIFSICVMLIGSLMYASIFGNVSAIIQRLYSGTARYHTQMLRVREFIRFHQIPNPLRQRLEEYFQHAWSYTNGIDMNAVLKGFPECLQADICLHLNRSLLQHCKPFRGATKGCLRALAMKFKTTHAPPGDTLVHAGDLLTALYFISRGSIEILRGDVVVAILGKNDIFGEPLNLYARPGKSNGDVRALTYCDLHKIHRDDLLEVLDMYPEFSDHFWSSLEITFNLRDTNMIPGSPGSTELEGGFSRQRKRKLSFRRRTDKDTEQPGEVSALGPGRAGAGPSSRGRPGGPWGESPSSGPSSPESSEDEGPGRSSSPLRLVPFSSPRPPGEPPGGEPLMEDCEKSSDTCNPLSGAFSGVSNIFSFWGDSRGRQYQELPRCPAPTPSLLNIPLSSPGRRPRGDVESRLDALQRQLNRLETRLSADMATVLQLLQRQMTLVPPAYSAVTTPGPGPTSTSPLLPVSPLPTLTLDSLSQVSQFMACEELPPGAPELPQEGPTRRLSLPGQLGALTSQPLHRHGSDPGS

[1] = target: T1, HEK-Nav1.5 (Late, Antagonist) (Homo sapiens, UniProt Q14524); assay type: cell-based; settings: CTP 0.1 to 30 µM; HEK cells; late current, ramp with 50nM ATXII; antagonist; 0.1% Pluronic F-68
T1 construct: CYL7004QB2DR (late); host or cells: HEK

NAV1.5 = NAV1.5 (Homo sapiens, UniProt Q14524); test: in vitro; assay type: cell-based; settings: up to 30 µM
Chain of NAV1.5 (Q14524 whole entry): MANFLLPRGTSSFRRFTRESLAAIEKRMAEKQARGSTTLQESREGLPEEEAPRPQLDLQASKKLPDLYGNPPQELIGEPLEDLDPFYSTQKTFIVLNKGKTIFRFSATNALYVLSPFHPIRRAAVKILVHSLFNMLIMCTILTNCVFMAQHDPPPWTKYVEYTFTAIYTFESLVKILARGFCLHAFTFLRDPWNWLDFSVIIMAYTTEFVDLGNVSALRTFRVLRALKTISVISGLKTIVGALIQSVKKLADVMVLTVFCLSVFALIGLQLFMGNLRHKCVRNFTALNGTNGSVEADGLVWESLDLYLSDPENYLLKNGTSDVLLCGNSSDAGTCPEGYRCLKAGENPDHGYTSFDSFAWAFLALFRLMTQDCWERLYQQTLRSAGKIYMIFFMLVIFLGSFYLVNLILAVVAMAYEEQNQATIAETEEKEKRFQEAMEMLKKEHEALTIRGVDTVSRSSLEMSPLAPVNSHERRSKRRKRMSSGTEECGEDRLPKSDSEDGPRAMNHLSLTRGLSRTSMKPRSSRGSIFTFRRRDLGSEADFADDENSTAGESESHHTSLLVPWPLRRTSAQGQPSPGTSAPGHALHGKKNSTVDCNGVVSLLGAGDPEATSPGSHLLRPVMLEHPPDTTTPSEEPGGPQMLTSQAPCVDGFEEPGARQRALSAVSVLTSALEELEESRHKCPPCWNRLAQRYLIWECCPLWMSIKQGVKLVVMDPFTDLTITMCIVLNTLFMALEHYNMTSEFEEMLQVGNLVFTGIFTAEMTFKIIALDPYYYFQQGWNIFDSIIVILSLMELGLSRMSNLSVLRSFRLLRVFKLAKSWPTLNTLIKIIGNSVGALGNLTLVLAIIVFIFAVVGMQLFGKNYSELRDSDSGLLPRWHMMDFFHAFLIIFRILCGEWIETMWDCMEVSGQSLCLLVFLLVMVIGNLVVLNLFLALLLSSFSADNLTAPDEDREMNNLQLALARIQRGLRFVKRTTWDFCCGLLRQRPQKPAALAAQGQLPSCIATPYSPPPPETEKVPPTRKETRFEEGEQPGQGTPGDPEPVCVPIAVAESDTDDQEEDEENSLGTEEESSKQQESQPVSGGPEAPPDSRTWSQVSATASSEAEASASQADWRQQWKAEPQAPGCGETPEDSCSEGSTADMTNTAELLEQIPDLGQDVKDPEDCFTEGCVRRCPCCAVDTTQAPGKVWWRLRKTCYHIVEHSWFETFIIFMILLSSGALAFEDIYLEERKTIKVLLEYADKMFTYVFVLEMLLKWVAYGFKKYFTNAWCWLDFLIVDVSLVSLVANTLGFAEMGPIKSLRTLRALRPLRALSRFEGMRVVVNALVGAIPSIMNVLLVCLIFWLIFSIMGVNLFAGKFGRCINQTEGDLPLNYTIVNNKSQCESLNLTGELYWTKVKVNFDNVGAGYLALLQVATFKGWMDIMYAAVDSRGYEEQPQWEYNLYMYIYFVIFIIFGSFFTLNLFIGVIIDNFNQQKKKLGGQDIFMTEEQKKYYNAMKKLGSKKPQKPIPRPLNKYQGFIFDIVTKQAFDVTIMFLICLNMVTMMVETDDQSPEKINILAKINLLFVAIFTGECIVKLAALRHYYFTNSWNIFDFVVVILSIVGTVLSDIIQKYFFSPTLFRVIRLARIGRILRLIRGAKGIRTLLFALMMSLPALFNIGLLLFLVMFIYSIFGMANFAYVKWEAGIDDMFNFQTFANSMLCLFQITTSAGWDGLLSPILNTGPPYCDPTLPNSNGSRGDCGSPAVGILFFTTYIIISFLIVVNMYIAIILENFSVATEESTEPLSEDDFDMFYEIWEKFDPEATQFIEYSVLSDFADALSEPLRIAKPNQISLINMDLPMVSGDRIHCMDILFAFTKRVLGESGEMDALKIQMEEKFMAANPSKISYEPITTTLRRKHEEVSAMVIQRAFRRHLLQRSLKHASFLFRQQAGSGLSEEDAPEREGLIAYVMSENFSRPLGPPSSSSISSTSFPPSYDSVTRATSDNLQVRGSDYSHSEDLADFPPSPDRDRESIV
Method: Ion Channel Assays: Cell lines were grown, plated, and loaded with 1× loading buffer containing 1× dye and 2.5 mM freshly prepared probenecid. Assays were performed, and activity was measured using a FLIPR Tetra. Percent of activation and percent of inhibition were calculated to determine agonist and antagonist activity, respectively. […]
The KINOMEscan screening platform employs a novel and propri- Membrane Potential Assay etary active site-directed competition binding assay to quantitatively The FLIPR® Membrane Potential Assay Kit is used which utilizes a pro-measure interactions between test compounds and the kinases. prietary fluorescent indicator dye in combination with a quencher to This robust and reliable assay technology affords investigators the reflect real-time membrane potential changes associated with ion ability to extensively annotate compounds with accurate, precise channel activation and ion transporter proteins. […]
Compounds that bind the kinase active site and directly (sterically) be monitored within a single experiment. […]
Upon stimulation, […]
a quantitative, precise and ultra-sensitive qPCR method that detects the receptor signals release of intracellular calcium, which results in the associated DNA label (D). In a similar manner, dissociation con- an increase of dye fluorescence. […]
1. Compound activity was measured on a FLIPR Tetra (MDS). […]

cardiomyocytes = settings: cited from earlier work
From the text: Targeted delivery of therapeutics specifically to cardiomyocytes would open up new frontiers for common conditions like heart failure. […] CTP has been used to deliver imaging agents, small drug molecules, photosensitizing nanoparticles, exosomes, and even miRNA to cardiomyocytes. As a natural extension to the development of CTP as a clinically viable ... || Advances in the development of novel technologies in pharmaceutics today necessitate the development of safe and effective targeted delivery methods for cargoes such as nanoparticles, siRNA, drugs, and more. Cell-penetrating peptides (CPPs), which are small, positively charged peptides capable of crossing the cell membrane barrier, provide a promising method for intracellular delivery, which is highly efficient and minimally cytotoxic. Tat (HIV trans-activator of transcription) was the first CPP to be discovered to enter the cell and induce the expression of viral genes ... || Heart disease and cardiac illness continue to be a leading cause of death in the US [16], and, as such, novel treatments for increasingly prevalent conditions such as heart failure and atrial fibrillation are sorely needed.

HEK-Cav1.2 = HEK-Cav1.2 (Homo sapiens, UniProt Q13936); settings: CTP 0.1 to 30 µM; HEK cells; -100mV to +20mV; 0.1% Pluronic F-68

## APWHLSSQYSRT [CTP]
B6-wildtype mice
  diastolic blood pressure: No significant difference; also recorded: no significant (ns) change
  systolic blood pressure: No significant difference; also recorded: no significant (ns) change
CHO-hERG
  Estimated IC50: N/C (key: N/C: Not calculable, inhibition >25% was not observed.)
[1]
  Estimated IC50: N/C (Not calculable, inhibition >25% was not observed.)
NAV1.5; SAFETYscan ion channel assay
  blocking or activation: no significant blocking or activation
NAV1.5; blocker, FLIPR Tetra, read-out: RC50 (the source's name)
  IC50: > 30 µM
cardiomyocytes; fibroblasts, endothelial cells, myofibroblasts spared, ref [19]
  cell specificity in the heart: targets cardiomyocytes specifically while sparing the other cells
cardiomyocytes; intravenous injection, "in as little as", ref our prior work
  time to targeting of cardiomyocytes after intravenous injection: ~5 min
cardiomyocytes; peripheral intravenous injection, "in as little as", ref [6],[15]
  time to transduction of cardiomyocytes after intravenous injection: ~15 min
cardiomyocytes; ref [15]
  blood–brain barrier crossing: does not cross the blood–brain barrier
  uptake by other tissues: not taken up by the lungs, spleen, or other muscle subtypes
HEK-Cav1.2
  Estimated IC50: N/C (Not calculable, inhibition >25% was not observed.)
